Paper PMC4459787 (Science (New York, N.Y.), 2014)
Ends that are not written are not given here.

How the values were obtained:
EAAT2 transcript = experiment: RT-PCR of EAAT2 transcript splicing in human astrocytes; type: cell-based; conditions: for aberrant EAAT2 splicing: human astrocytes exposed to toxin until clear evidence of toxicity, PCR, fig. S6B
U2OS cells [1] = type: cell-based
[2] = type: in vitro ADME; conditions: cells or culture medium
[3] = tested on: ribosomal RNA (45S precursor, 18S, 5.8S, 28S); experiment: qPCR of rRNA synthesis and processing in peptide-treated human astrocytes; type: cell-based; conditions: 12 hours
U2OS cells [4] = experiment: Cell entry and nucleolar localisation by HA immunostaining in U2OS cells; type: cell-based; conditions: 10 μM, 30 min, fixed, HA antibody staining
human astrocytes = experiment: Nucleolar localisation by HA immunostaining in human astrocytes; type: cell-based; conditions: U2OS cancer cells and human astrocytes, HA antibody and Fibrillarin staining
[5] = tested on: pre-mRNA splicing (RAN GTPase, PTX3, NACA, GADD45A); type: cell-based; conditions: human astrocytes
[6] = biological target: mCherry:hnRNPA2 hydrogel droplets (low complexity domain of hnRNPA2) (Homo sapiens, UniProt P22626); experiment: Binding to mCherry:hnRNPA2 hydrogel droplets; conditions: GFP signal at the periphery of mCherry:hnRNPA2 hydrogel droplets; overnight incubation at 4°C
Chain of mCherry:hnRNPA2 hydrogel droplets (low complexity domain of hnRNPA2) (P22626 193-353 limits assumed, one chain of several): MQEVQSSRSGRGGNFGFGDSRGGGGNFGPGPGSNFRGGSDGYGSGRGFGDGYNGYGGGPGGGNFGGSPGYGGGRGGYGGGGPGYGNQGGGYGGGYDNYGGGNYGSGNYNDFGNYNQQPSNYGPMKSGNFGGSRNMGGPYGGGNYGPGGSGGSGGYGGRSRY

C=C1[C@@H](C)[C@H]2[C@H](Cc3ccccc3)NC(=O)[C@]23[C@H](OC(C)=O)/C=C/[C@@](C)(O)C(=O)[C@@H](C)C/C=C/[C@H]3[C@@H]1O [cytochalasin D]
aberrant EAAT2 splicing (EAAT2 transcript): None of the four toxins gave evidence of aberrant splicing

PRPRPRPRPRPRPRPRPRPRPRPRPRPRPRPRPRPRPRPRYPYDVPDYA [PR20]
time to half-maximal impact on cell viability (U2OS cells [1]; 10 μM peptide, fig. S4E): roughly 36 hours | time to 50% cell death (U2OS cells [1]; 30 μM dose of the peptide, fig. S4F): 6 h | cell morphology (U2OS cells [1]; U2OS cells, 10 μM, within 24 hours): spindle-like phenotype | cell morphology and viability (U2OS cells [1]; U2OS cells, 30 μM, 24 hours): almost all cells were detached from the culture substrate and dead | half-life [2]: 72 h | attenuation of rRNA precursor, 3′ junction of 5.8S rRNA ([3]; 10 μM, qPCR): 40% | attenuation of rRNA precursor, third probe (5′ end of 5.8S rRNA) ([3]; 10 μM, qPCR): roughly 20% | elevation of rRNA precursor, 5′ transcribed spacer primers ([3]; 10 μM, qPCR): 20% | immature rRNA, first junctional probe (5′ end of 18S rRNA) ([3]; 10 μM, qPCR): elevation in immature rRNA | rRNA precursor, 5′ junction of 28S rRNA ([3]; 10 μM, qPCR): normal precursor levels | rRNA precursor, second junctional probe (3′ end of 18S rRNA) ([3]; 10 μM, qPCR): normal levels of rRNA precursor | 28S rRNA level ([3]; 30 μM, qPCR): Slight reductions | drop of rRNA precursor, 3′ terminus of 5.8S rRNA ([3]; 30 μM, qPCR): 70% | reduction of the level of 5.8S rRNA ([3]; 30 μM, qPCR relative to vehicle): 70% | cell entry and localisation (U2OS cells [4]): entered cells, migrated to the nucleus and bound to nucleoli | nucleolar association (human astrocytes): associated prominently with nucleoli | aberrant EAAT2 splicing (exon 9-skipped form and intron 7 retention) (EAAT2 transcript; human astrocytes, 10 or 15 μM, 36 hours, RT-PCR): appeared in a concentration-dependent manner | splicing of GADD45 mRNA ([5]; 6 hours, RT-PCR): include the full intronic sequences on both sides of exon 2 | splicing of NACA mRNA ([5]; 6 hours, RT-PCR): contain a different 5′ UTR | splicing of PTX3 mRNA ([5]; 6 hours, RT-PCR): exon 2-skipping | splicing of RAN GTPase mRNA ([5]; 6 hours, RT-PCR): exon 2-skipping | expression of the ribosomal protein gene family ([5]; RNA-seq, P < 2.2e-16, Kolmogorov–Smirnov test): significantly up-regulated

CN[C@@H]1C[C@H]2O[C@@](C)([C@@H]1OC)n1c3ccccc3c3c4c(c5c6ccccc6n2c5c31)C(=O)NC4 [staurosporin]
aberrant EAAT2 splicing (EAAT2 transcript): None of the four toxins gave evidence of aberrant splicing

COc1cccc2c1C(=O)c1c(O)c3c(c(O)c1C2=O)C[C@@](O)(C(=O)CO)C[C@@H]3O[C@H]1C[C@H](N)[C@H](O)[C@H](C)O1 [doxorubicin]
aberrant EAAT2 splicing (EAAT2 transcript): None of the four toxins gave evidence of aberrant splicing

CC(C)[C@H](NC(=O)[C@H](CC(=O)O)NC(=O)[C@H](Cc1ccc(O)cc1)NC(=O)[C@@H]1CCCN1C(=O)[C@H](Cc1ccc(O)cc1)NC(=O)[C@H](CCCNC(=N)N)NC(=O)CNC(=O)[C@H](CCCNC(=N)N)NC(=O)CNC(=O)[C@H](CCCNC(=N)N)NC(=O)CNC(=O)[C@H](CCCNC(=N)N)NC(=O)CNC(=O)[C@H](CCCNC(=N)N)NC(=O)CNC(=O)[C@H](CCCNC(=N)N)NC(=O)CNC(=O)[C@H](CCCNC(=N)N)NC(=O)CNC(=O)[C@H](CCCNC(=N)N)NC(=O)CNC(=O)[C@H](CCCNC(=N)N)NC(=O)CNC(=O)[C@H](CCCNC(=N)N)NC(=O)CNC(=O)[C@H](CCCNC(=N)N)NC(=O)CNC(=O)[C@H](CCCNC(=N)N)NC(=O)CNC(=O)[C@H](CCCNC(=N)N)NC(=O)CNC(=O)[C@H](CCCNC(=N)N)NC(=O)CNC(=O)[C@H](CCCNC(=N)N)NC(=O)CNC(=O)[C@H](CCCNC(=N)N)NC(=O)CNC(=O)[C@H](CCCNC(=N)N)NC(=O)CNC(=O)[C@H](CCCNC(=N)N)NC(=O)CNC(=O)[C@H](CCCNC(=N)N)NC(=O)CNC(=O)[C@H](CCCNC(=N)N)NC(=O)CN)C(=O)N1CCC[C@H]1C(=O)N[C@@H](CC(=O)O)C(=O)N[C@@H](Cc1ccc(O)cc1)C(=O)N[C@@H](C)C(=O)O [GR20]
cell entry and localisation (U2OS cells [4]): entered cells, migrated to the nucleus and bound to nucleoli | nucleolar association (human astrocytes): associated prominently with nucleoli

CC(=O)O[C@H]1C(=O)[C@@]2(C)[C@H]([C@H](OC(=O)c3ccccc3)[C@]3(O)C[C@H](OC(=O)[C@H](O)[C@@H](NC(=O)c4ccccc4)c4ccccc4)C(C)=C1C3(C)C)[C@]1(OC(C)=O)CO[C@@H]1C[C@@H]2O [taxol]
aberrant EAAT2 splicing (EAAT2 transcript): None of the four toxins gave evidence of aberrant splicing

green fluorescent protein [GFP]
binding to hnRNPA2 hydrogel droplets [6]: did not bind
